Values after ≈ are worked out from the molar mass of the structure shown. Like-named read-outs stand apart in the source and are kept apart here. Marks after values point to notes of the source that are not given here.
Experiments:
[1] = Saturation solubility with and without 4 % hydroxypropyl-methyl-β-cyclodextrin (DS 0,96; MS 0,43); type: physicochemical
Description: B. In ähnlicher Weise wurde die Löslichkeit von Arzneistoffen in einer 4 %-igen wässrigen Lösung von Hydroxypropyl-methyl-β-cyclodextrin (DS = 0,96; MS = 0,43) untersucht. Die erhaltenen Ergebnisse sind in der nachfolgenden Tabelle 2 zusammengefaßt, wobei für jeden Arzneistoff das Verhältnis R von Sättigungslöslichkeit in Wasser bzw. beim angegebenen pH-Wert mit und ohne Zusatz des β-Cyclodextrinderivats angegeben ist.

[2] = Saturation solubility in phosphate buffer with and without 10 % hydroxypropyl-β-cyclodextrin (MS 0.35); details: for Verh.S1 zu S2: given as 1: x; for solubility thermodynamic at 24 h: phosphate buffer
Experimental: A. Unter Verwendung einer 10 %-igen Hydroxypropyl-β-cyclodextrinlösung (MS 0.35) in Phosphatpufferlösung wurde unter denselben Bedingungen wie in Beispiel 1 die Sättigungslöslichkeit bei 25°C für verschiedene Arzneistoffe bestimmt. In Tabelle 1 sind die Sättigungslöslichkeit S1 in Phosphatpufferlösung und S2 in Phosphatpufferlösung unter Zusatz von 10 % Hydroxypropyl-β-cyclodextrin angegeben. Tabelle 1

[3] = with the 2,6-Di-O-methylderivat of β-cyclodextrin; cited from earlier work
[4] = Storage stability of indometacin solutions at 21°C, HPLC content; type: physicochemical; details: aqueous buffer; concentration of the saturated solution in phosphate buffer (solution A); read-out: gesättigte Lösung in Phosphatpufferlösung
Experimental: In 10 ml Phosphatpufferlösung wurden bei 25°C 0,7 g Hydroxyethyl-β-cyclodextrin (MS 0.43) und 0,04 g Indometacin bis zur klaren Lösung eingearbeitet. Diese wurde durch ein Membranfilter (0,22 µm) filtriert und unter Laminarflow in eine vorsterilisierte Injektionsflasche abgefüllt, die bei 21°C eingelagert wurde (B). Parallel dazu wurde eine gesättigte Indometaeinlösung in Phosphatpufferlösung (0,21 mg/ml) unter gleichen Bedingungen aufbewahrt (A). Die hochdruckflüssigkeitschromatographisch ermittelten Wirkstoff-Konzentrationen sind in Tabelle 3 wiedergegeben. Die wesentlich verbesserte Stabilität des erfindungsgemäßen Präparates ist offensichtlich. Tabelle 3

[5] = Dissolution rate of medroxyprogesterone acetate from tablets; type: physicochemical; details: tablet with Hydroxyethyl-β-cyclodextrin (MS 0.43) versus same tablet excipients without β-cyclodextrin ether
Experimental: In 100 ml Wasser wurden 7 g Hydroxyethyl-β-cyclodextrin (MS 0.43) sowie 0,5 g Medroxyprogesteronacetat gelöst. Anschließend wurde das Wasser auf einem Rotationsverdampfer abgezogen. Der Rückstand […] wurde pulverisiert und mit 366 mg Calcium-hydrogenphosphat. 2H2O, 60 mg Maisstärke, 120 mg Cellulosepulver(mikrokristallin), 4,2 mg hochdisperse Kieselsäure (Aerosil® 200) und 4,8 mg Magnesiumstearat zu Tabletten mit einem Endgewicht von 630,0 mg und pro Einzeldosis 5 mg Wirkstoff verarbeitet. Die Lösungsgeschwindigkeit des Medroxyprogesteronacetats aus dieser Zubereitung ist etwa 21 mal höher als bei Einsatz der gleichen Tablettenhilfsstoffe ohne Zusatz des β-Cyclodextrinethers.

[6] = Acute intravenous toxicity in rats; type: in vivo, Ratten; details: rat, in vivo, iv
Description: (§1) Die akute intravenöse Toxizität von einigen β-Cyclodextrinen wurde an Ratten untersucht, wobei die nachfolgenden Ergebnisse erhalten wurden. Dabei zeigte sich, daß die Toxizität der erfindungsgemäß eingesetzten Derivate überraschend eine ganze Größenordnung niedriger ist. Tabelle 5

[7] = in water; cited from earlier work
Ratten = experiment: Acute intravenous toxicity in rats; type: in vivo; details: rat, i.v.
Description: as §1

[8] = tested on: roten Blutkörperchen (menschlichen Ursprungs); type: cell-based; details: human, 30 min
Experimental: In einer weiteren Versuchsreihe wurde die hämolytische Wirkung der Methylether gemäß DE-A-3 118 218 mit derjenigen eines erfindungsgemäß verwendeten Ethers verglichen. Dazu wurden 100 µl einer physiologischen Kochsalzlösung mit einem Cyclodextringehalt von 10 %, 800 µl eines Puffers (400 mg MOPS, 36 mg Na2HPO4·2 H2O, 1,6 g NaCl in 200 ml H2O) und 100 µl einer Suspension von roten Blutkörperchen (menschlichen Ursprungs, dreimal mit Kochsalzlösung gewaschen), 30 Min. lang bei 37°C gemischt. Anschließend wurde zentrifugiert und die Extinktion bei 540 mn bestimmt.
Kontrollen: • a) 100 µl Kochsalzlösung + Puffer → 0 % Hämolyse • b) 900 µl Wasser → 100 % Hämolyse
Die gefundenen Ergebnisse sind in der nachfolgenden Tabelle 6 zusammengefaßt, wobei die Konzentrationen angegeben sind, bei denen eine 50 %-ige bzw. eine 100 % Hämolyse stattfand. Tabelle 6

[9] = phosphate buffer, pH 6.6
Description: Die in den Beispielen genannte Phosphatpuffer-Lösung hatte einen pH-Wert von 6.6 und folgende Zusammensetzung:

[10] = in water, 4 % Hydroxypropyl-methyl-β-cyclodextrin

COc1cc(N)c(Cl)cc1C(=O)NC1CCN(CCCOc2ccc(F)cc2)CC1OC (stereo not drawn) [Cisaprid]
Verhältnis R von Sättigungslöslichkeit mit und ohne Zusatz des β-Cyclodextrinderivats [1]: 3

C[C@@H]1C[C@H]2[C@@H]3CCC4=CC(=O)C=C[C@]4(C)[C@@]3(F)[C@@H](O)C[C@]2(C)[C@@]1(O)C(=O)CO [Dexamethason]
Verh.S1 zu S2 [2]: 172,0
solubility thermodynamic at 24 h ([2]; 10% hp-beta-cd, pH 6.6): 14300 µg/mL (≈ 36400 µM)
solubility thermodynamic at 24 h ([2]; pH 6.6, aqueous buffer): 83 µg/mL (≈ 211 µM)

CN1C(=O)CN=C(c2ccccc2)c2cc(Cl)ccc21 [Diazepam]
Verh.S1 zu S2 [2]: 29,4

C[C@H]1O[C@@H](O[C@H]2[C@@H](O)C[C@H](O[C@H]3[C@@H](O)C[C@H](O[C@H]4CC[C@@]5(C)[C@H](CC[C@@H]6[C@@H]5CC[C@]5(C)[C@@H](C7=CC(=O)OC7)CC[C@]65O)C4)O[C@@H]3C)O[C@@H]2C)C[C@H](O)[C@@H]1O [Digitoxin]
Steigerung der Löslichkeit in Wasser [3]: 81,6 -fache

CCOC(=O)c1cncn1[C@H](C)c1ccccc1 [Etomidat]
Verhältnis R von Sättigungslöslichkeit mit und ohne Zusatz des β-Cyclodextrinderivats [1, 10]: 8,5

COC(=O)Nc1nc2cc(C(=O)c3ccc(F)cc3)ccc2[nH]1 [Flubendazol]
Verhältnis R von Sättigungslöslichkeit mit und ohne Zusatz des β-Cyclodextrinderivats [1, 10]: 30

Fc1ccc(C(c2ccc(F)cc2)N2CCN(C/C=C/c3ccccc3)CC2)cc1 [Flunarizin]
Verhältnis R von Sättigungslöslichkeit mit und ohne Zusatz des β-Cyclodextrinderivats [1, 10]: 18

COc1ccc2c(c1)c(CC(=O)O)c(C)n2C(=O)c1ccc(Cl)cc1 [Indometacin]
Verh.S1 zu S2 [2]: 30,1
solubility thermodynamic at 24 h ([2]; 10% hp-beta-cd, pH 6.6): 5720 µg/mL (≈ 16000 µM)
solubility thermodynamic at 24 h ([2]; pH 6.6, aqueous buffer): 190 µg/mL (≈ 531 µM)
solubility [4]: 210 µg/mL (≈ 587 µM)

CCC(C)n1ncn(-c2ccc(N3CCN(c4ccc(OCC5COC(Cn6cncn6)(c6ccc(Cl)cc6Cl)O5)cc4)CC3)cc2)c1=O (stereo not drawn) [Itraconazol]
Verhältnis R von Sättigungslöslichkeit mit und ohne Zusatz des β-Cyclodextrinderivats ([1]; pH 2): 75
Verhältnis R von Sättigungslöslichkeit mit und ohne Zusatz des β-Cyclodextrinderivats ([1]; pH 5): 96

CC(=O)N1CCN(c2ccc(OCC3COC(Cn4ccnc4)(c4ccc(Cl)cc4Cl)O3)cc2)CC1 (stereo not drawn) [Ketoconazol]
Verhältnis R von Sättigungslöslichkeit mit und ohne Zusatz des β-Cyclodextrinderivats [1]: 85

CN(C)C(=O)C(CCN1CCC(O)(c2ccc(Cl)cc2)CC1)(c1ccccc1)c1ccccc1 [Loperamid]
Verhältnis R von Sättigungslöslichkeit mit und ohne Zusatz des β-Cyclodextrinderivats [1, 10]: 62

CC(=O)OC1(C(C)=O)CCC2C3CC(C)C4=CC(=O)CCC4(C)C3CCC21C (stereo not drawn) [Medroxyprogesteronacetat]
Lösungsgeschwindigkeit [5]: ~21 mal höher

CC(=O)[C@H]1CC[C@H]2[C@@H]3CCC4=CC(=O)CC[C@]4(C)[C@H]3CC[C@]12C [Progesteron]
Verh.S1 zu S2 [2]: 1083,0
solubility thermodynamic at 24 h ([2]; 10% hp-beta-cd, pH 6.6): 7690 µg/mL (≈ 24500 µM)
solubility thermodynamic at 24 h ([2]; pH 6.6, aqueous buffer): 7.1 µg/mL (≈ 22.6 µM)

OC[C@H]1O[C@@H]2O[C@H]3[C@H](O)[C@@H](O)[C@@H](O[C@H]4[C@H](O)[C@@H](O)[C@@H](O[C@H]5[C@H](O)[C@@H](O)[C@@H](O[C@H]6[C@H](O)[C@@H](O)[C@@H](O[C@H]7[C@H](O)[C@@H](O)[C@@H](O[C@H]8[C@H](O)[C@@H](O)[C@@H](O[C@H]1[C@H](O)[C@H]2O)O[C@@H]8CO)O[C@@H]7CO)O[C@@H]6CO)O[C@@H]5CO)O[C@@H]4CO)O[C@@H]3CO [β-Cyclodextrin]
LD50 [6]: 453 mg/kg
Wasserlöslichkeit [7]: 1,8 g pro 100 ml

Dimethyl-β-cyclodextrin [Dimethyl-β-cyclodextrin (DS = 2,0)]
LD50 bei Ratten (i.v.) (Ratten): 200 - 207 mg/kg Körpergewicht
C50 % (Konzentration, bei der eine 50 %-ige Hämolyse stattfand) [8]: 0,33%
C100 % (Konzentration, bei der eine 100 % Hämolyse stattfand) [8]: 0,5%

Hydroxyethyl-β-cyclodextrin [Hydroxyethyl-β-cyclodextrin (MS 0.43)]
Sättigungslöslichkeit des Cyclodextrinderivates im Puffer [9]: 7,2 g/100 ml

Hydroxypropyl-methyl-β-cyclodextrin
LD50 bei Ratten (i.v.) (Ratten): > 2000* mg/kg Körpergewicht
C50 % (Konzentration, bei der eine 50 %-ige Hämolyse stattfand) [8]: 1,5%
C100 % (Konzentration, bei der eine 100 % Hämolyse stattfand) [8]: 4%
hämolytische Wirkung [8]: 5 bis 8 mal geringer

Levocabastin
Verhältnis R von Sättigungslöslichkeit mit und ohne Zusatz des β-Cyclodextrinderivats ([1]; pH 7,4, 4 % Hydroxypropyl-methyl-β-cyclodextrin): 8
Verhältnis R von Sättigungslöslichkeit mit und ohne Zusatz des β-Cyclodextrinderivats ([1]; pH 9,5, 4 % Hydroxypropyl-methyl-β-cyclodextrin): 81

Methyl-β-CD [Methyl-β-CD (DS = 1,79)]
C50 % (Konzentration, bei der eine 50 %-ige Hämolyse stattfand) [8]: 0,53%
C100 % (Konzentration, bei der eine 100 % Hämolyse stattfand) [8]: 0,8%

Tubulazol
Verhältnis R von Sättigungslöslichkeit mit und ohne Zusatz des β-Cyclodextrinderivats [1, 10]: 43
